Laboratory results: publication PMC6713104, “New peptide derived antimalaria and antimicrobial agents bearing sulphonamide moiety” (Journal of Enzyme Inhibition and Medicinal Chemistry, 2019)
In brackets after ≈: the same amount, converted by molar mass. Read-outs that look alike come from different tables or passages of the source. Non-standard residues stand in square brackets, D forms with d. Residues, ends and D or L forms follow the SMILES beside them. ξ: configuration not given here. *: point of attachment. Tos = Cc1ccc(S(=O)(=O)*)cc1; NHPh = c1ccc(N*)cc1; ξA = CC(N)C(=O)O

Experiments:
[1] = tested on: Plasmodium berghei infection in mice; assay: In vivo antimalaria test; settings: P. berghei infected mice; for inhibition in vivo at 100 mg/kg / inhibition in vivo at 200 mg/kg: Plasmodium berghei, oral
Protocol: Experimental Design and Treatment of Mice. Methods of Peter et al.[30] and Kalra et al.[31] for antiplasmodial assay against Plasmodium berghei infection in mice with some modifications were employed. About eighty infected mice were randomly divided into five groups, each having […] mice. The inoculum was prepared from a donor mouse with rising parasitemia of 60.42%. After 7 days of infection, animals begin to receive treatment (100 and 200 mg/kg b wt.) of the synthesized compounds (7a–7n) for 12 days with constant check of the percentage of parasitemia after a 4-day interval. Artemisinin (100 and 200 mg/kg body weight.) was given to the other mice in group three as positive control, group four was not treated and group five was not infected. All the compounds and the drugs were given orally by using a standard intragastric tube. For all parasitemia determination, blood samples were collected from tail snip of each mouse and thin smears prepared and stained with 10% Giemsa solution. The uniform fields of each stained slide (for each mouse) were examined under microscope with an oil immersion objective of 100X magnification power and average percent of parasitemia was determined.
To determine the in vivo activity, the compounds were tested against P. berghei NK(65 Strain) infection mice., the animals were obtained from Nigeria institute for Trypanosoma and onchocercarioses Research (NTIR) Vom, Plateau State Nigeria. The permission and approval for the use of animals in this experiment were granted by the Animal Ethics Committee, Federal College of Vetrenary Medical Laboratory, Vom, Plateau State. Method of Peter et al.[30], for antiplasmodial assay against P. berghei in mice with some modification were employed. Artemisimin was used as treated control of the experiments. The percentage inhibition of parasite multiplication was calculated comparing the treated group with untreated group by means of the following formula[39] [(A − B)/A] × 100; where A = parasitaemia in the untreated group and B = parasitemia in the test group. […] Most of the compounds were active against P. berghei after 7 days post-infection by reducing the parasiteamia by at least 40% when in a dose of 100 mg/kg (Table 5). The inhibition of parasitaemia increased on 12th day post infection for almost all the compounds. […] However in consideration of the compounds ability to inhibit parasitaemia to the control drug. […] These compounds should be considered for further studies because of its promising activities.

[2] = tested on: P. falciparum strain W2; assay: In vitro antimalarial assay; format: cell-based; settings: Plasmodium falciparum, W2; P. falciparum, 48 h, >99% of parasites inhibited from developing to schizonts
[3] = tested on: K. pneumoniae; assay: Antimicrobial MIC, agar cup diffusion; format: cell-based; settings: Klebsiella pneumoniae, read-out: MIC (minimum inhibitory concentration)
[4] = tested on: E. coli; assay: Antimicrobial MIC, agar cup diffusion; format: cell-based; settings: Escherichia coli, read-out: MIC (minimum inhibitory concentration)
[5] = tested on: B. subtilis; assay: Antimicrobial MIC, agar cup diffusion; format: cell-based; settings: for MIC: Bacillus subtilis, B. subtilis, read-out: MIC (minimum inhibitory concentration); for activity against Bacillus compared with ciprofloxacin: in words
[6] = tested on: S. typhi; assay: Antimicrobial MIC, agar cup diffusion; format: cell-based; settings: Salmonella enterica, read-out: MIC (minimum inhibitory concentration)
[7] = tested on: A. niger; assay: Antimicrobial MIC, agar cup diffusion; format: cell-based; settings: Aspergillus niger, read-out: MIC (minimum inhibitory concentration)
[8] = tested on: C. albicans; assay: Antimicrobial MIC, agar cup diffusion; format: cell-based; settings: Candida albicans, read-out: MIC (minimum inhibitory concentration)
[9] = Liver function tests; format: in vivo; settings: mice, 10 mg/kg
Text: Twenty-four hours before the injecting the compounds, the blood sample of five mice was taken and it was also taken after the last day of treatment, the animals were sacrificed by cervical dislocation and the blood samples were collected by heart puncture. The blood samples for haematological parameters (red blood cell (RBC) count, white blood cell (WBC) count, packed cell volume (PCV), and hemoglobin (HGB)) were collected into EDTA bottles and analyzed using an automated machine (Automated CBC Analyzer: Sysmex KX-21). The liver function tests carried out with the blood of the rats fed with the sulfonamide derivatives were aspartate aminotransperase (AST), alanine transaminase (ALT) and alkaline phosphatase (ALP). Standard laboratory procedure according to Reitman and Franke[32] was used for the determination of parameters.

[10] = Haematological analysis; format: in vivo, mice
Text: (§1) Twenty-four hours before the injecting the compounds, the blood sample of five mice was taken and it was also taken after the last day of treatment, the animals were sacrificed by cervical dislocation and the blood samples were collected by heart puncture. The blood samples for haematological parameters (red blood cell (RBC) count, white blood cell (WBC) count, packed cell volume (PCV), and hemoglobin (HGB)) were collected into EDTA bottles and analyzed using an automated machine (Automated CBC Analyzer: Sysmex KX-21).
The blood samples for haematological parameters (red blood cell (RBC) count, white blood cell (WBC) count, packed cell volume (PCV), and haemoglobin (HGB)) were collected into EDTA bottles and analyzed using an automated machine (Automated CBC Analyzer: Sysmex KX-21) (Table 8). From the analysis, even though there is a decrease in the value of RBC, PCV and HB, it is observed that there is no significant changes in the parameters that were analyzed for the control and the test compounds.

[11] = Renal or kidney function test; format: in vivo; settings: mice, 10 mg/kg
Text: as §1, with “KX-21). Kidney function tests carried out with the blood of the rats fed with the sulfonamide derivatives were, creatinine and albunim. The method reported by Kaplan and Tengv[33] was used in the determination of creatinine.” for “KX-21).”

[12] = 168 h, read-out: % inhibition 7 days post-treatment (100 mg/kg), day 7
[13] = 168 h, read-out: % inhibition 7 days post-treatment (200 mg/kg), day 7
[14] = 288 h, read-out: % inhibition 12 days post-treatment (100 mg/kg), day 12
[15] = 288 h, read-out: % inhibition 12 days post-treatment (200 mg/kg), day 12

C[C@@H]1CC[C@H]2[C@@H](C)C(=O)O[C@@H]3O[C@@]4(C)CC[C@@H]1[C@]32OO4 [Artemisinin, reference compound]
inhibition in vivo at 100 mg/kg [1, 12]: 75.7%
inhibition in vivo at 200 mg/kg [1, 13]: 78.9%
inhibition in vivo at 100 mg/kg [1, 14]: 86.2%
inhibition in vivo at 200 mg/kg [1, 15]: 82.3%
MIC [2]: 0.72 µM (≈ 0.203 µg/mL)

O=C(O)c1cn(C2CC2)c2cc(N3CCNCC3)c(F)cc2c1=O [CIP, Ciprofloxacin, reference compound]
MIC [3]: 113 µg/mL (≈ 341 µM)
MIC [4]: 131 µg/mL (≈ 395 µM)
MIC [5]: 184 µg/mL (≈ 555 µM)
MIC [6]: 128 µg/mL (≈ 386 µM)

CC(NS(=O)(=O)c1ccccc1)C(=O)NCC(=O)Nc1cccc(Cl)c1 (stereo not shown) [Compound 7a, N-(2-((3-chlorophenyl)amino)-2-oxoethyl)-2-(phenylsulfonamido)propanamide]
inhibition in vivo at 100 mg/kg [1, 12]: 36.2%
inhibition in vivo at 200 mg/kg [1, 13]: 52.1%
inhibition in vivo at 100 mg/kg [1, 14]: 50%
inhibition in vivo at 200 mg/kg [1, 15]: 61.4%
MIC [7]: 1580 µg/mL (≈ 4000 µM)
MIC [8]: 56.1 µg/mL (≈ 142 µM)
MIC [3]: 251 µg/mL (≈ 634 µM)
MIC [4]: 489 µg/mL (≈ 1240 µM)
MIC [5]: 219 µg/mL (≈ 553 µM)
MIC [2]: 0.37 µM (≈ 0.146 µg/mL)
MIC [6]: 199 µg/mL (≈ 503 µM)

CC(NS(=O)(=O)c1ccccc1)C(=O)NCC(=O)Nc1ccccc1 (stereo not shown) [Compound 7f, N-(2-oxo-2-(phenylamino)ethyl)-2-(phenylsulfonamido)propanamide]
inhibition in vivo at 100 mg/kg [1, 12]: 38.2%
inhibition in vivo at 200 mg/kg [1, 13]: 71%
inhibition in vivo at 100 mg/kg [1, 14]: 41.9%
inhibition in vivo at 200 mg/kg [1, 15]: 73.3%
MIC [7]: 105 µg/mL (≈ 290 µM)
MIC [8]: 214 µg/mL (≈ 592 µM)
MIC [3]: 5010 µg/mL (≈ 13900 µM)
MIC [4]: 131 µg/mL (≈ 362 µM)
MIC [5]: 155 µg/mL (≈ 429 µM)
activity against Bacillus compared with ciprofloxacin [5]: greater activity against Bacillus than ciprofloxacin
MIC [2]: 2.32 µM (≈ 0.839 µg/mL)
MIC [6]: 4680 µg/mL (≈ 12900 µM)

Cc1ccc(S(=O)(=O)NC(C)C(=O)NCC(=O)Nc2cccc(F)c2)cc1 (stereo not shown) [Compound 7j, N-(2-((3-fluorophenyl)amino)-2-oxoethyl)-2–(4-methylphenylsulfonamido)propanamide]
ability to inhibit parasitaemia compared to the control drug ([1]; in words): almost the same or better activity compared to the artemisinin
inhibition in vivo at 100 mg/kg [1, 12]: 77.9%
inhibition in vivo at 200 mg/kg [1, 13]: 77.4%
inhibition in vivo at 100 mg/kg [1, 14]: 82.7%
inhibition in vivo at 200 mg/kg [1, 15]: 73.5%
MIC [8]: 371 µg/mL (≈ 943 µM)
MIC [3]: 83 µg/mL (≈ 211 µM)
ALT ([9]; After): 25.5 µ/L
AST ([9]; After): 60.0 µ/L
Bilirubin ([9]; After): 0.2 mg/dL
T.P. ([9]; After): 5.8 g/dL
ALT ([9]; Before): 26.3 µ/L
AST ([9]; Before): 65.0 µ/L
Bilirubin ([9]; Before): 0.4 mg/dL
T.P. ([9]; Before): 6.0 g/dL
MIC [4]: 275 µg/mL (≈ 699 µM)
MIC [5]: 245 µg/mL (≈ 623 µM)
HB ([10]; After treatment): 10.0 g/dL
PCV ([10]; After treatment): 34%
RBC ([10]; After treatment): 6.5 × 10^6 mm^3
WBC ([10]; After treatment): 9.1 × 10^3 mm^3
HB ([10]; Before treatment): 13.5 g/dL
PCV ([10]; Before treatment): 39%
RBC ([10]; Before treatment): 7.1 × 10^6 mm^3
WBC ([10]; Before treatment): 8.0 × 10^3 mm^3
Albumin ([11]; After): 4.0 g/dL
Creatinine ([11]; After): 0.3 mg/dL
Albumin ([11]; Before): 3.9 g/dL
Creatinine ([11]; Before): 0.4 mg/dL
MIC [2]: 0.88 µM (≈ 0.346 µg/mL)
MIC [6]: 129 µg/mL (≈ 328 µM)

Cc1ccc(S(=O)(=O)NC(C)C(=O)NCC(=O)Nc2ccc(F)cc2)cc1 (stereo not shown) [Compound 7k, N-(2-((4-fluorophenyl)amino)-2-oxoethyl)-2–(4-methylphenylsulfonamido)propanamide]
inhibition in vivo at 100 mg/kg [1, 12]: 40.4%
inhibition in vivo at 200 mg/kg [1, 13]: 54.9%
inhibition in vivo at 100 mg/kg [1, 14]: 44.3%
inhibition in vivo at 200 mg/kg [1, 15]: 56.4%
MIC [7]: 316 µg/mL (≈ 803 µM)
MIC [8]: 63.1 µg/mL (≈ 160 µM)
MIC [3]: 79 µg/mL (≈ 201 µM)
MIC [4]: 316 µg/mL (≈ 803 µM)
MIC [5]: 371 µg/mL (≈ 943 µM)
MIC [2]: 0.53 µM (≈ 0.209 µg/mL)
MIC [6]: 3160 µg/mL (≈ 8030 µM)

Cc1ccc(S(=O)(=O)NC(C)C(=O)NCC(=O)Nc2ccccc2)cc1 (stereo not shown) [Compound 7m, 2–(4-methylphenylsulfonamido)-N-(2-oxo-2-(phenylamino)ethyl)propanamide] (Tos-[ξA]-Gly-NHPh)
inhibition in vivo at 100 mg/kg [1, 12]: 33.5%
inhibition in vivo at 200 mg/kg [1, 13]: 71.4%
inhibition in vivo at 100 mg/kg [1, 14]: 29.3%
inhibition in vivo at 200 mg/kg [1, 15]: 74%
MIC [7]: 56 µg/mL (≈ 149 µM)
MIC [8]: 7940 µg/mL (≈ 21100 µM)
MIC [3]: 138 µg/mL (≈ 368 µM)
MIC [4]: 123 µg/mL (≈ 328 µM)
MIC [5]: 129 µg/mL (≈ 344 µM)
activity against Bacillus compared with ciprofloxacin [5]: greater activity against Bacillus than ciprofloxacin
MIC [2]: 1.87 µM (≈ 0.702 µg/mL)
MIC [6]: 57 µg/mL (≈ 152 µM)

OC(Cn1cncn1)(Cn1cncn1)c1ccc(F)cc1F [FLU, Fluconazole, reference compound]
MIC [7]: 47.1 µg/mL (≈ 154 µM)
MIC [8]: 21.7 µg/mL (≈ 70.9 µM)
